# Experimental data reported in paper PMC9871843 (Clinical Kidney Journal, 2022).
# Assay: Safety and tolerability
# Assay type: in vivo, healthy participants (human)
# Settings: healthy adults, single oral dose
# [1] = safety analysis set, by system organ class
smiles,measurement,setting,value
"C=CC[C@@H]1/C=C(\C)C[C@H](C)C[C@H](OC)[C@H]2O[C@@](O)(C(=O)C(=O)N3CCCC[C@H]3C(=O)O[C@H](/C(C)=C/[C@@H]3CC[C@@H](O)[C@H](OC)C3)[C@H](C)[C@@H](O)CC1=O)[C@H](C)C[C@@H]2OC [Tacrolimus, tacrolimus]",participants in whom adverse events were reported,,seven
same,Participants with any AE,"safety analysis set, N as in column head",7 (22.6) n (%)
same,Participants with AEs: Cardiac disorders,[1],0 n (%)
same,Participants with AEs: Eye disorders,[1],1 (3.2) n (%)
same,Participants with AEs: Gastrointestinal disorders,[1],2 (6.5) n (%)
same,Participants with AEs: General disorders and administration site conditions,[1],1 (3.2) n (%)
same,Participants with AEs: Infections and infestations,[1],0 n (%)
same,"Participants with AEs: Injury, poisoning and procedural complications",[1],1 (3.2) n (%)
same,Participants with AEs: Musculoskeletal and connective tissue disorders,[1],1 (3.2) n (%)
same,Participants with AEs: Nervous system disorders,[1],3 (9.7) n (%)
same,Participants with AEs: Renal and urinary disorders,[1],0 n (%)
same,"Participants with AEs: Respiratory, thoracic and mediastinal disorders",[1],0 n (%)
